In US9624211B2, “Anti-cancer compounds” (Board of Regents, The University of Texas System, priority 2013, dated 2017):
Entries after “also recorded” stand apart in the source; their conditions may differ.

Assays:
Skp2 SCF E3 ligase = target: T1, Skp2 SCF E3 ligase (Homo sapiens, UniProt Q13309); experiment: In vivo p27 ubiquitination assay in 293T cells; type: cell-based; conditions: WT Skp2
T1 construct: expressed in transfected cells; host or cells: 293T
Experimental: (§1) In vivo and in vitro ubiquitination assays were performed as described with modification (Lin et al., 2009; Yang et al., 2009). For in vitro ubiquitination assay, recombinant GST-Akt proteins were expressed, purified and eluted from the bacterial lysates of BL21 competent cells. Flag-Skp2 SCF complex were expressed in 293T cells, immunoprecipitated by anti-Flag antibody, and eluted from Protein A/G beads using Flag peptides according to manufacturers' standard procedures. Purified GST-Akt and Flag-SCF proteins were incubated for 3 h at 37° C. in the absence and presence of Skp2 inhibitor. After incubation, protein mixtures were diluted in E1A Buffer and the supernatant fluid was precleared with Protein A/G beads for 1 h, and immunoprecipitated overnight with anti-Flag antibody, after which Protein A/G beads were added for an additional 1 h. Beads were washed 4 times with E1A Buffer. Proteins were eluted in SDS-sample buffer and subjected to immunoblotting analysis. For in vivo ubiquitination assay, 293T cells were transfected with the indicated plasmids and cultured in the absence or presence of Skp2 inhibitor for 48 h. 6 h before harvest, cells were cultured in the presence of MG132. After cell harvest, cells were lysed by the denatured buffer (6M guanidine-HCl, 0.1M Na2HPO4/NaH2PO4, 10 mM imidazole). […]

[1] = test system: Skp2 Trp97Ala and Asp98Ala mutants; experiment: In vivo p27 ubiquitination assay, Skp2 Trp97Ala and Asp98Ala mutants; type: cell-based
Experimental: as §1

Skp2 Trp127Ala mutant = target: T2, Skp2 Trp127Ala mutant (Homo sapiens, UniProt Q13309, W127A); experiment: In vivo p27 ubiquitination assay, Skp2 Trp127Ala mutant; type: cell-based
T2 construct: expressed in transfected cells; host or cells: 293T
T2 sequence (Q13309 whole entry W127A): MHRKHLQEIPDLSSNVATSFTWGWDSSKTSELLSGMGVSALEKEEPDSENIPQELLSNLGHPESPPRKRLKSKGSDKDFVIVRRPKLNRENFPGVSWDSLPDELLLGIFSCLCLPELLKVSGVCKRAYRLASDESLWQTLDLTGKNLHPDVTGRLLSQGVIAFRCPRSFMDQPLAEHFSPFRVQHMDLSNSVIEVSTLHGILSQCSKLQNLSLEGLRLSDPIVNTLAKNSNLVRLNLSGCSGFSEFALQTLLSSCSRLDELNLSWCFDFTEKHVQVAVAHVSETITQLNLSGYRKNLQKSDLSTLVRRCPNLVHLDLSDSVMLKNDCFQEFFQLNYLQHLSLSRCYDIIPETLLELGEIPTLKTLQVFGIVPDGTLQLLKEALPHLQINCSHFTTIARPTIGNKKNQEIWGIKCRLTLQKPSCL
Experimental: as §1

Skp2 SCF complex = target: T3, Skp2 SCF complex (Homo sapiens, UniProt Q13309); experiment: In vitro Skp2-mediated Akt ubiquitination assay; type: biochemical; conditions: recombinant Akt, FIG. 1H
T3 construct: made in house; host or cells: 293T cells; anti-Flag immunoprecipitation, eluted with Flag peptide
T3 sequence (Q13309 whole entry, one chain of several): as the sequence (Q13309 whole entry W127A) above, with A127W counted along it
Experimental: as §1

Skp2 protein expression = experiment: Skp2 protein expression, immunoblotting; type: cell-based; conditions: higher dosage (20 μM)
Excerpt: Cells were lysed with RIPA buffer in the presence of protease inhibitor cocktail (Roche). The following antibodies were used for immunoblotting analysis: anti-Skp2 (Invitrogen), anti-Xpress (Invitrogen), anti-p27 (BD transduction laboratories), anti-p21 (Santa Cruz), anti-β-actin (Sigma), anti-α-tubulin (Sigma), anti-phospho-Akt (Thr308) (Cell Signaling), anti-phospho-Akt (Ser473) (Cell Signaling), and anti-HA (Convance). For immunohistochemistry, tissues were fixed in 10% formalin and embedded in paraffin in accordance with standard procedures. Sections were stained with anti-Skp2 (Invitrogen), anti-p27 (Epitomics), anti-phosphoAkt (SerS473) (Cell signaling), anti-Glut1 (Abcam), and anti-Ki67 (Abcam). TUNEL staining was performed by using in situ cell death detection kit-POD (Roche).

WT Skp2 = target: T4, WT Skp2 (Homo sapiens, UniProt Q13309); experiment: In vitro binding of compound to GST-Skp2 by LC-MS/MS; conditions: preexisting Skp2-Skp1 complex
T4 construct: made in house
T4 sequence (Q13309 whole entry): as the sequence (Q13309 whole entry W127A) above, with A127W counted along it
Experimental: To corroborate this notion, the in vitro binding assay was performed to compare the binding affinity of compound #25 to WT Skp2 and Skp2 mutants (Trp97Ala and Asp98Ala) using LC-MS/MS analysis. Of note, since the nature of recombinant Skp2 protein was unstable in the absence of Skp1 (Li et al., 2005), the GST-Skp2 WT, GST-Skp2 Trp97Ala and GST-Skp2Asp98Ala mutants subjected to LC-MS/MS analysis were co-expressed, purified and preformed complex with Skp1 (FIG. 10A).

β-TRCP = experiment: In vivo ubiquitination assay, β-TRCP substrates; type: cell-based; conditions: in the presence of proteasome inhibitor
Experimental: as §1

[2] = test system: tumorigenic lung cancer cells; experiment: Cell survival assay, lung cancer cells and normal fibroblasts; type: cell-based
Experimental: (§2) For Skp2 inhibitor administration, 5-10×10^3 of cells with were seeded in 12 wells in triplicate, 24 h later, treated with compound #25 (refreshed every two days). Four days later, cells were harvested, stained with trypan blue, and viable cells were counted directly under the microscope using hemocytometer. For doxorubicin treatment, 8×10^3 of PC3 cells with were seeded in 12 wells in triplicate, 24 h later, treated with various dose of compound #25 in the presence or absence of 10 nM doxorubicin or 25 ng/ml cyclophosphamide for four and three days, respectively (refreshed every two days). After treatment, cells were harvested, stained with trypan blue, and viable cells were counted directly under the microscope using hemocytometer. Cellular senescence was determined by assessing SA-b-gal activity using senescence detection kit according to manufacturers' standard procedures (Calbiochem).

H3255 (lung) = experiment: Cell survival assay, H3255; type: cell-based, human
Experimental: as §2

U2OS (osteocarcinoma) = experiment: Cell survival assay, U2OS; type: cell-based, human
Experimental: as §2

prostate cancer cells = experiment: Cell apoptosis assay (Annexin-V, flow cytometry); type: cell-based
Experimental: Prostate cancer cells were treated with vehicle (DMSO) or Skp2 inhibitor for 3 days, and collected and labeled with Annexin-V-FITC, followed by flow cytometry analysis. The Annexin-V+ and […] cells indicates apoptotic cell population (Q4).

A549 xenograft tumors = experiment: A549 tumor xenograft in nude mice; type: in vivo; conditions: IP injection
Experimental: Nude mice bearing PC3 or A549 xenograft tumors (around 100 mm^3) were administrated with vehicle or 80 mg/kg compound #25 on a daily basis. Tumor size was measured weekly with a caliper, and tumor volume was determined with the standard formula: L×W2×0.52, where L is the longest diameter and W the shortest diameter.

T1 sequence (Q13309 whole entry): as the sequence (Q13309 whole entry W127A) above, with A127W counted along it

Question: How did the “Skp2-mediated p27 ubiquitination” value (Skp2 SCF E3 ligase) turn out when CCc1cc2c(=O)c(-c3nc4ccccc4s3)coc2c(CN2CCCCC2)c1O [compound #25, 3-(1,3-benzothiazol-2-yl)-6-ethyl-7-hydroxy-8-(1-piperidinylmethyl)-4H-chromen-4-one] was run?
Answer: inhibited Skp2-mediated p27 ubiquitination in a dose-dependent manner; also recorded: abrogated E3 ligase activity

Question: What about the “E3 ligase activity of Skp2 Trp97Ala and Asp98Ala mutants” value [1] of the same compound?
Answer: failed to inhibit

Question: What about the “E3 ligase activity of Skp2 Trp127Ala mutant” value (Skp2 Trp127Ala mutant) of the same compound?
Answer: abrogated E3 ligase activity

Question: What about the “Skp2-mediated Akt ubiquitination in vitro” value (Skp2 SCF complex) of the same compound?
Answer: attenuated Skp2-mediated Akt ubiquitination

Question: And the Skp2 protein expression (Skp2 protein expression)?
Answer: downregulated Skp2 protein expression

Question: And the “binding to WT Skp2” value (WT Skp2)?
Answer: readily bound

Question: And the “β-TRCP-mediated ubiquitination (β-catenin, Snail, IκBα)” value (β-TRCP)?
Answer: no appreciable effect

Question: What about the “cytotoxicity, lung cancer cells over lung fibroblast” value [2] of the same compound?
Answer: favorably triggered cytotoxicity in tumorigenic lung cancer cells over non-tumorigenic lung fibroblast

Question: What about the cell viability (H3255 (lung)) of the same compound?
Answer: potent suppressive effect on viability

Question: What about the cell viability (U2OS (osteocarcinoma)) of the same compound?
Answer: potent suppressive effect on viability

Question: And the cell apoptosis (prostate cancer cells)?
Answer: elicited cell apoptosis

Question: And the “lung tumor growth in vivo” value (A549 xenograft tumors)?
Answer: potent effect
